Laboratory results from patent US20050009889A1 (priority 2002, published 2005).
Marks after values point to notes of the source that are not given here.

Columns and labels:
Format in all cases: in vivo
[1] = test system: Erysiphe graminis f. sp. tritici; test: Test A: preventive control of wheat powdery mildew on wheat seedlings; conditions: wheat seedlings sprayed to run-off, inoculated next day, rated after 7 days; concentration not given
Source text: (§1) General protocol for preparing test suspensions: Test compounds are first dissolved in acetone in an amount equal to 3% of the final volume and then suspended at the desired concentration (in ppm) in acetone and purified water (50/50 mix) containing 250 ppm of the surfactant Trem® 014 (polyhydric alcohol esters). The resulting test suspensions are then used in the following tests. Spraying a 200 ppm test suspension to the point of run-off on the test plants is the equivalent of a rate of 500 g/ha.
The test suspension was sprayed to the point of run-off on wheat seedlings. The following day the seedlings were inoculated with a spore dust of Erysiphe graminis f. sp. tritici, (the causal agent of wheat powdery mildew) and incubated in a growth chamber at 20° C. for 7 days, after which disease ratings were made.

Plasmopara viticola [2] = test: Test G: curative control of grape downy mildew on grape seedlings; conditions: grape seedlings, curative; 100 ppm (footnote *)
Source text: as §1
Grape seedlings are inoculated with a spore suspension of Plasmopara viticola (the casual agent of grape downy mildew) and incubated in a saturated atmosphere at 20° C. for 24 h. The next day, test suspension is sprayed to the point of run-off and the treated plants are moved to a growth chamber at 20° C. for 6 days, and then incubated in a saturated atmosphere at 20° C. for 24 h, after which disease ratings are made.

Phytophthora infestans [3] = conditions: curative; 100 ppm on potato seedlings
Pyricularia oryzae = conditions: rice seedlings sprayed to run-off, inoculated next day; concentration not given
grape downy mildew = test: Curative utility, in addition to the Tests of Table A; conditions: especially for grape downy mildew
Plasmopara viticola [4] = test: Test E: preventive control of grape downy mildew on grape seedlings; conditions: grape seedlings sprayed to run-off, inoculated next day; concentration not given
Source text: as §1
The test suspension was sprayed to the point of run-off on grape seedlings. The following day the seedlings were inoculated with a spore suspension of Plasmopara viticola (the causal agent of grape downy mildew) and incubated in a saturated atmosphere at 20° C. for 24 h, moved to a growth chamber at 20° C. for 6 days, and then incubated in a saturated atmosphere at 20° C. for 24 h, after which disease ratings were made.

Puccinia recondita = test: Test B: preventive control of wheat leaf rust on wheat seedlings; conditions: wheat seedlings sprayed to run-off, inoculated next day; concentration not given
Source text: as §1
The test suspension was sprayed to the point of run-off on wheat seedlings. The following day the seedlings were inoculated with a spore suspension of Puccinia recondita (the causal agent of wheat leaf rust) and incubated in a saturated atmosphere at 20° C. for 24 h, and then moved to a growth chamber at 20° C. for 6 days, after which disease ratings were made.

Phytophthora infestans [5] = conditions: tomato seedlings sprayed to run-off, inoculated next day; concentration not given

Row | Molecule | Test A disease control rating (100 = 100% disease control, 0 = no control) [1] | Test G disease control rating (100 = 100% disease control, 0 = no control) (Plasmopara viticola [2]) | Test F disease control rating (100 = 100% disease control, 0 = no control) (Phytophthora infestans [3]) | Test C disease control rating (100 = 100% disease control, 0 = no control) (Pyricularia oryzae) | curative utility (grape downy mildew) | Test E disease control rating (100 = 100% disease control, 0 = no control) (Plasmopara viticola [4]) | Test B disease control rating (100 = 100% disease control, 0 = no control) (Puccinia recondita) | Test D disease control rating (100 = 100% disease control, 0 = no control) (Phytophthora infestans [5])
1 | 2,4-Dichloro-N-[[3-chloro-5-(trifluoromethyl)-2-pyridinyl]methyl]-3-pyridinecarboxamide [Compound 19] | 0% | 37* % | 97# % | 0% | significant curative utility | 100% | 35% | 100%
2 | Cc1cnc(Cl)c(C(=O)NCc2ncc(C(F)(F)F)cc2Cl)c1Cl [Compound 20] | 0% | 100* % | 24# % | 0% | significant curative utility | 100% | 54% | 100%
